Strand notation (5' to 3'): a small letter for the sugar, then the base; units joined by * are phosphorothioate-linked, units joined directly phosphodiester-linked; [ ] holds rarer units or linkages, { } end groups; capitals alone tell only the bases. k = constrained ethyl (cEt); [5mC] = 5-methylcytosine; d = 2'-deoxy (DNA)
Tested on: Yap1 mRNA
Assay: Dose-dependent inhibition of human Yap1 in A-431 cells (Example 7, 10,000 cells per well, RTS36584)
Type: cell-based
Conditions: free uptake
Procedure, shortened: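 Yap1 mRNA was expressed as percent of untreated control after normalization to total RNA (RIBOGREEN), and IC50 was derived by log/linear linear regression. The read-out used primer-probe set RTS36584 roughly 48 hours after free-uptake dosing of oligonucleotides into A-431 cells (10,000 cells/well).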

[1] = 15.6 nM, A-431 cells, 10,000 cells per well, approximately 48 hours
[2] = 62.5 nM, A-431 cells, 10,000 cells per well, approximately 48 hours
[3] = 4000.00 nM, A-431 cells, 10,000 cells per well, approximately 48 hours
[4] = A-431 cells, approximately 48 hours, linear regression on log/linear plot
[5] = Table 59, 15.6 nM, A-431 cells 10,000 cells per well, 48 hours
[6] = Table 59, 62.5 nM, A-431 cells 10,000 cells per well, 48 hours
[7] = Table 59, 4000.00 nM, A-431 cells 10,000 cells per well, 48 hours
[8] = Table 59, A-431 cells 10,000 cells per well
[9] = Table 61, 15.6 nM, A-431 cells 10,000 cells per well, 48 hours
[10] = Table 61, 62.5 nM, A-431 cells 10,000 cells per well, 48 hours
[11] = Table 61, 4000.00 nM, A-431 cells 10,000 cells per well, 48 hours
[12] = Table 61, A-431 cells 10,000 cells per well
[13] = Table 60, 15.6 nM, A-431 cells 10,000 cells per well, 48 hours
[14] = Table 60, 62.5 nM, A-431 cells 10,000 cells per well, 48 hours
[15] = Table 60, 4000.00 nM, A-431 cells 10,000 cells per well, 48 hours
[16] = Table 60, A-431 cells 10,000 cells per well

“958600 (kG*kT*kA*dG*dA*dT*d[5mC]*dT*dA*dA*dG*dA*dA*kG*k[5mC]*k[5mC]; antisense) [compound 958600]” was tested, and the “Yap1 mRNA, % UTC” value [1] was 69 % UTC, the “Yap1 mRNA, % UTC” value [2] was 44 % UTC and the “Yap1 mRNA, % UTC” value [3] was 14 % UTC. It also gave an IC50 [4] of 50 nM.
“958798 (kT*kG*k[5mC]*dA*dG*dT*dA*dT*dA*dA*dT*dA*dT*k[5mC]*k[5mC]*kT; antisense) [compound 958798]” was tested, and the “Yap1 mRNA, % UTC” value [5] was 101 % UTC, the “Yap1 mRNA, % UTC” value [6] was 61 % UTC and the “Yap1 mRNA, % UTC” value [7] was 12 % UTC. It also gave an IC50 [8] of 100 nM.
For “958569 (kA*kG*k[5mC]*d[5mC]*dT*dT*dA*dG*dA*dG*dT*d[5mC]*dA*kA*kT*kT; antisense) [compound 958569]”, the “Yap1 mRNA, % UTC” value [9] was 82 % UTC, the “Yap1 mRNA, % UTC” value [10] was 49 % UTC and the “Yap1 mRNA, % UTC” value [11] was 7 % UTC. The IC50 [12] was 100 nM.
In the case of “958490 (kG*kT*kG*dA*d[5mC]*dA*dT*dG*dA*dA*dG*d[5mC]*dA*kT*k[5mC]*kT; antisense) [compound 958490]”, the “Yap1 mRNA, % UTC” value [1] is reported as 81 % UTC, the “Yap1 mRNA, % UTC” value [2] is reported as 54 % UTC and the “Yap1 mRNA, % UTC” value [3] is reported as 13 % UTC. It also gave an IC50 [4] of 100 nM.
For “958562 (k[5mC]*kA*kT*dT*dG*dA*dA*dA*dG*dA*d[5mC]*d[5mC]*d[5mC]*kT*kT*kA; antisense) [compound 958562]”, the “Yap1 mRNA, % UTC” value [5] was 105 % UTC, the “Yap1 mRNA, % UTC” value [6] was 95 % UTC and the “Yap1 mRNA, % UTC” value [7] was 28 % UTC. The IC50 [8] was 400 nM.
With “958370 (antisense k[5mC]*kT*kT*dT*dA*dT*d[5mC]*dT*dA*dG*d[5mC]*dT*dT*kG*kG*kT) [compound 958370]” the “Yap1 mRNA, % UTC” value (Table 56, 15.6 nM, A-431 cells 10,000 cells per well, 48 hours) was 98 % UTC, the “Yap1 mRNA, % UTC” value (Table 56, 62.5 nM, A-431 cells 10,000 cells per well, 48 hours) was 74 % UTC and the “Yap1 mRNA, % UTC” value (Table 56, 4000.00 nM, A-431 cells 10,000 cells per well, 48 hours) was 22 % UTC. The IC50 (Table 56, A-431 cells 10,000 cells per well) was 200 nM.
In the case of “958572 (kA*kT*kT*dA*dT*dA*dG*dG*d[5mC]*dA*d[5mC]*dT*d[5mC]*k[5mC]*kT*kT; antisense) [compound 958572]”, the “Yap1 mRNA, % UTC” value [5] is reported as 83 % UTC, the “Yap1 mRNA, % UTC” value [6] is reported as 77 % UTC and the “Yap1 mRNA, % UTC” value [7] is reported as 22 % UTC. It also gave an IC50 [8] of 200 nM.
With “958614 (kG*kT*k[5mC]*dT*dT*dG*dT*dT*d[5mC]*dT*dT*dA*dT*kG*kG*kT; antisense) [compound 958614]” the “Yap1 mRNA, % UTC” value [9] was 84 % UTC, the “Yap1 mRNA, % UTC” value [10] was 49 % UTC and the “Yap1 mRNA, % UTC” value [11] was 13 % UTC. It also gave an IC50 [12] of 100 nM.
In the case of “958508 (kG*kA*kG*dA*dG*d[5mC]*dA*dG*dA*dT*dA*dA*dT*k[5mC]*kG*kA; antisense) [compound 958508]”, the “Yap1 mRNA, % UTC” value [13] is reported as 65 % UTC, the “Yap1 mRNA, % UTC” value [14] is reported as 64 % UTC and the “Yap1 mRNA, % UTC” value [15] is reported as 13 % UTC. For the same substance, the IC50 [16] was 100 nM.
In the case of “958819 (kT*kG*k[5mC]*dT*dT*d[5mC]*dA*dA*d[5mC]*dA*dT*dT*dG*kT*kT*k[5mC]; antisense) [compound 958819]”, the “Yap1 mRNA, % UTC” value [1] is reported as 79 % UTC, the “Yap1 mRNA, % UTC” value [2] is reported as 63 % UTC and the “Yap1 mRNA, % UTC” value [3] is reported as 19 % UTC. For the same substance, the IC50 [4] was 100 nM.
For “958758 (k[5mC]*kT*kA*dT*dT*d[5mC]*dA*dG*dT*dG*dA*dT*d[5mC]*kT*kG*k[5mC]; antisense) [compound 958758]”, the “Yap1 mRNA, % UTC” value [5] was 83 % UTC, the “Yap1 mRNA, % UTC” value [6] was 66 % UTC and the “Yap1 mRNA, % UTC” value [7] was 12 % UTC. For the same substance, the IC50 [8] was 100 nM.
“958466 (kG*kT*k[5mC]*dA*dT*dT*dA*dA*dG*dG*dA*dT*dG*kT*k[5mC]*kA; antisense) [compound 958466]” was tested, and the “Yap1 mRNA, % UTC” value (Table 57, 15.6 nM, A-431 cells 10,000 cells per well, 48 hours) was 84 % UTC, the “Yap1 mRNA, % UTC” value (Table 57, 62.5 nM, A-431 cells 10,000 cells per well, 48 hours) was 81 % UTC and the “Yap1 mRNA, % UTC” value (Table 57, 4000.00 nM, A-431 cells 10,000 cells per well, 48 hours) was 30 % UTC. The IC50 (Table 57, A-431 cells 10,000 cells per well) was 300 nM.
For “958543 (kA*k[5mC]*k[5mC]*dT*dT*dA*dT*dA*dG*dT*dA*dT*dT*k[5mC]*kT*kA; antisense) [compound 958543]”, the “Yap1 mRNA, % UTC” value [13] was 84 % UTC, the “Yap1 mRNA, % UTC” value [14] was 63 % UTC and the “Yap1 mRNA, % UTC” value [15] was 18 % UTC. The IC50 [16] was 100 nM.
In the case of “958757 (kG*kT*kG*dA*dT*d[5mC]*dT*dG*d[5mC]*dA*d[5mC]*dA*dT*kT*kG*kT; antisense) [compound 958757]”, the “Yap1 mRNA, % UTC” value (Table 58, 15.6 nM, A-431 cells 10,000 cells per well, 48 hours) is reported as 110 % UTC, the “Yap1 mRNA, % UTC” value (Table 58, 62.5 nM, A-431 cells 10,000 cells per well, 48 hours) is reported as 89 % UTC and the “Yap1 mRNA, % UTC” value (Table 58, 4000.00 nM, A-431 cells 10,000 cells per well, 48 hours) is reported as 27 % UTC. For the same substance, the IC50 (Table 58, A-431 cells 10,000 cells per well) was 300 nM.

Source: patent publication US11214803B2, “Modulators of YAP1 expression” (Ionis Pharmaceuticals, Inc., priority 2019, dated 2022)
